What was measured:
[1] = 14-day rat toxicology study; assay type: in vivo; conditions: for NOAEL at 14 days: in vivo, 14-day daily administration, solution in Labrasol
Method: (§1) The compound was assessed in 14-day rat and dog toxicology studies with daily administration of Compound 9 as a solution in HPBCD in dogs and Labrasol® in rats.
(§2) The NOAEL in rats was 3 mg/kg (females) and 22.5 mg/kg (males), and was 2.5 mg/kg in dogs. […] A single observation of mortality occurred in one female rat at the high dose in a toxicokinetic study which was suspected to have been related to exaggerated pharmacology.

rats = assay: 14-day rat toxicology study; assay type: in vivo
Method: as §1, §2

[2] = 14-day dog toxicology study; assay type: in vivo; conditions: dog, in vivo; dogs; 14-day daily administration, solution in HPBCD
Method: as §1, §2

dogs = assay: 14-day dog toxicology study; assay type: in vivo
Method: as §1, §2

[3] = tested on: seizures arising from chemoconvulsants, proconvulsant stimuli, and genetic predisposition; assay: preclinical anticonvulsant models; assay type: in vivo, rodents; conditions: oral
Method: FIGS. 3A and 3B depict exemplary preclinical anticonvulsant efficacy in rodents.
as §1

[4] = toxicology and safety pharmacology studies across species; assay type: in vivo
Method: as §1
Expected risks are those identified during the toxicology and safety pharmacology studies for Compound 9 and clinical study Example 2. […] This will be monitored in the clinical study using two scales, one designed to monitor “sleepiness” (Stanford Sleepiness Scale) and one to monitor deeper sedation (Modified Observer's Assessment of Alertness/Sedation).

healthy volunteers [5] = assay: Phase I single ascending dose (SAD) study: MOAA/S sedation and adverse events; assay type: in vivo, human
From the text: Example 2. A Phase I, Double-Blind, Placebo-Controlled, Single Ascending Dose Study to Determine the Maximum Tolerated Dose (MTD), Pharmacokinetics and Pharmacodynamics of Compound 9 Oral Solution in Healthy Volunteers and the Safety, Tolerability, and Pharmacokinetics of Compound 9 in Subjects with Essential Tremor
This four-part study will assess the effects of a single dose of Compound 9. The initial part of the study is a double-blind, placebo-controlled single ascending dose (SAD) design in healthy, adult volunteers with the objective of identifying the maximum tolerated dose (MTD) and pharmacokinetic (PK) profiles of Compound 9 Oral Solution. Escalation to the next dose will be undertaken only after safety and PK data have been reviewed by the Safety Review Committee (SRC) and agreement reached that it is safe to increase the dose. The SRC will not receive any unblinded PK data unless it is agreed upon by the SRC to unblind a subject and/or cohort based on the completed safety review.
In each of the SAD cohorts, subjects will be randomly assigned to receive either Compound 9 (six subjects) or placebo (two subjects) in a blinded manner. Cohort 1 will receive Dose 1, Cohort 2 will receive Dose 2, and so on. With the exception of the Food cohort, study drug will be administered in a fasting state (no food and only water for the previous 12 hours) and a standard Phase 1 unit diet will be administered beginning approximately four to five hours after dosing. […]
The MOAA/S allows exploration of deeper sedation states than the SSS. […] If a MOAA/S score of 3 or less (≤3) is observed, confirm the score by waiting approximately 10 minutes and readministering the MOAA/S assessment. […]

healthy volunteers [6] = assay: Phase I multiple ascending dose (MAD) study: MOAA/S sedation; assay type: in vivo, human
From the text: Example 3. Phase I, Double-Blind, Placebo-Controlled, Multiple Ascending Dose Study to Determine Safety, Tolerability, Pharmacokinetics and Pharmacodynamics of Compound 9 Oral Solution in Healthy Volunteers
This study comprises a double blind, placebo-controlled multiple ascending dose (MAD) study followed by an open-label drug-drug interaction study (DDI) without placebo in healthy, adult volunteers. Four cohorts of 12 subjects each will be recruited for a total of 48 subjects. Subjects in Cohorts 1, 2, and 3 will participate in the multiple-ascending-dose (MAD) part of the study, and subjects in Cohort 4 will participate in the drug-drug-interaction (DDI) part of the study.
The objective of the MAD part of the study is to determine the safety, tolerability, pharmacokinetics (PK), and pharmacodynamic (PD) profile of seven days of dosing with Compound 9 Oral Solution (henceforth referred to as Compound 9).
The MOAA/S allows exploration of deeper sedation states than the SSS. All time points are relative to the time of dosing. If the planned time point is between the hours of 22:00 h and 08:00 h each day or if the subject has been discharged before the +72 hour time point, the assessment need not be conducted at that time point. If a subject is difficult to awaken, an additional MOAA/S assessment may be performed at the discretion of the PI. Any MOAA score of 3 or less must be repeated. […]

[7] = male and female rats, non-adverse, reversible, without microscopic correlates

SMILES: C[C@@]1(O)CC[C@H]2[C@H](CC[C@@H]3[C@@H]2CC[C@]2(C)[C@@H](C(=O)Cn4cc(C#N)cn4)CC[C@@H]32)C1 [Compound 9]
- AUC at 14 day ([1]; plasma, 22.5 mg/kg, male rat 14-day toxicology, read-out: AUC at lowest NOAEL exposure in toxicology studies): 5050 ng·h/mL
- NOAEL at 14 days ([1]; rat, female rats): 3 mg/kg
- NOAEL at 14 days ([1]; rat, male rats): 22.5 mg/kg
- Cmax ([1]; rat, plasma, 3 mg/kg, female rats, Day 14, read-out: estimated human Cmax based on the lowest NOAEL Day 14 Cmax in female rats): 400 ng/mL
- mortality (rats; female rat, high dose, toxicokinetic study, suspected related to exaggerated pharmacology): one
- increases in AST/ALT (rats; high dose male and female rats): < 2 fold
- microscopic liver finding (rats; high dose male and female rats): increased incidence of minimal hepatocellular vacuolation
- APTT (rats; [7]): slight prolongation of APTT
- urine pH (rats; [7]): slight increase in urine pH
- adverse effects in main toxicology study (rats; rats): no adverse effects
- NOAEL at 14 days [2]: 2.5 mg/kg
- adverse effects in main toxicology study (dogs): no adverse effects
- core body temperature (dogs): transient decreases in core body temperature
- heart rate (dogs): transient increases in heart rate
- renal microscopic finding (dogs; well-documented vehicle effect): minimal renal tubular vacuolation
- anticonvulsant activity [3]: orally active in preclinical anticonvulsant models, and suppressed seizures
- most common drug-related effect ([4]; across species, studies and doses): dose-related sedation
- manifestations of exaggerated pharmacology ([4]; nonclinical studies): sedation and ataxia
- subjects with MOAA/S ≤2 (healthy volunteers [5]; 55 mg single dose, stopping criteria not met): 2 subjects
- subjects with MOAA/S ≤2 (healthy volunteers [5]; 66 mg single dose, stopping criteria met): 2 subjects
- adverse events possibly or probably related to the study drug (healthy volunteers [5]; five SAD cohorts dosed, oral solution, study ongoing): mild drowsiness, mild confusion, somnolence, headache, orthostatic heart rate increase, aloofness, anxiety, sore throat and mild abdominal discomfort
- subjects with MOAA/S scores of 1 or 2 (deep sedation) (healthy volunteers [6]; 35 mg group, all at 1 hour post-dose): two
- mean MOAA/S (healthy volunteers [6]; by 4 hours post-dose): approached baseline values

Reference: US10940156B2, “Neuroactive steroids, compositions, and uses thereof” (Sage Therapeutics, Inc., priority 2016, dated 2021)
